The source of these data is publication PMC7822874, “Chemoprotective antimalarials identified through quantitative high-throughput screening of Plasmodium blood and liver stage parasites” (Scientific Reports, 2021).

Each structure is given as a SMILES string. Read-outs that look alike come from different tables or passages of the source.

Assay [1] has as its system P. berghei-ANKA-GFP-LucCON liver stage parasites in HepG2-A16-CD81EGFP cells. Description: P. berghei liver stage Pb-Luc assay, Method 1 (UCSD, 1536-well). The assay is classed as cell-based, Plasmodium berghei. Particulars: Plasmodium berghei, 48 h, P. berghei liver stage, average of 2 wells on a 1536 well plate; for activity at 1 µM: 1 µM compound treatment (10 mM stocks); for activity at 3 µM: 3 µM compound treatment (10 mM stocks).

Assay [2] deals with Plasmodium falciparum Dd2 asexual blood stage parasites. Description: microbe, parasite or virus in culture. Also on record: species or system Plasmodium falciparum Dd2 in human erythrocytes; single determination (one 11-point concentration-response curve). As to conditions: Plasmodium falciparum, DD2, Erythrocyte, 72 h; read-out: AC50.
In the next assay the test system is HepG2-A16-CD81EGFP cells. As to conditions: average of 2 wells; for HepG2 1uM growth rep1 / HepG2 1uM growth rep2: HepG2, 1 µM compound treatment (10 mM stocks); for HepG2 1uM growth rep1 / HepG2 3uM growth rep1: replicate 1, normalized; for HepG2 1uM growth rep2 / HepG2 3uM growth rep2: replicate 2, normalized; for HepG2 3uM growth rep1 / HepG2 3uM growth rep2: HepG2, 3 µM compound treatment (10 mM stocks).

Where [3] appears, read: replicate 1, normalized, read-out: PbLuc 1uM growth rep1.
[4] abbreviates: replicate 2, normalized, read-out: PbLuc 1uM growth rep2.
Setting [5] is: replicate 1, normalized, read-out: PbLuc 3uM growth rep1.
The mark [6] stands for this setting: replicate 2, normalized, read-out: PbLuc 3uM growth rep2.

For `COc1ccc(NC(=O)C(c2ccc(Cl)cc2)C(C)C)cn1` (stereo not drawn) [MLS001149289-01], in assay [1] (setting [3]), the activity at 1 µM is 131%. The activity at 1 µM in assay [1] (setting [4]) was 130%. For the same compound, the activity at 3 µM in assay [1] (setting [5]) is 155%. Further, the activity at 3 µM in assay [1] (setting [6]) turned out to be 159%. Further, in assay [2], the AC50 (as a rule, the concentration giving half of the maximal activity seen) stood at 1.88 µM. In the assay with HepG2-A16-CD81EGFP cells, the “HepG2 1uM growth rep1” value is 104%, the “HepG2 1uM growth rep2” value is on record as 98%, the “HepG2 3uM growth rep1” value is 90% and the “HepG2 3uM growth rep2” value stood at 87%.

For `O=C(CCl)Nc1ccc(Oc2cnc3ccccc3n2)cc1` [MLS000327546-01], the activity at 1 µM in assay [1] (setting [3]) stood at 99%. Also, the activity at 1 µM in assay [1] (setting [4]) stood at 119%. The activity at 3 µM in assay [1] (setting [5]) came to 104%. Moreover, in assay [1] (setting [6]), the activity at 3 µM was 138%. Moreover, in assay [2], the AC50 was 3.35 µM. In addition, in the assay on HepG2-A16-CD81EGFP cells, the “HepG2 1uM growth rep1” value is reported as 90%, the “HepG2 1uM growth rep2” value was found to be 86%, the “HepG2 3uM growth rep1” value came to 92% and the “HepG2 3uM growth rep2” value is on record as 90%.

`CC1CCN(c2ccc(C(=O)NCc3ccco3)cc2[N+](=O)[O-])CC1` [MLS000389854-01]: the activity at 1 µM in assay [1] (setting [3]) amounted to 63%. The activity at 1 µM in assay [1] (setting [4]) came to 57%. The activity at 3 µM in assay [1] (setting [5]) worked out at 20%. Further, the activity at 3 µM in assay [1] (setting [6]) was determined as 28%. The AC50 in assay [2] came out at 6.68 µM. Moreover, in the assay with HepG2-A16-CD81EGFP cells, the “HepG2 1uM growth rep1” value is 91%, the “HepG2 1uM growth rep2” value is reported as 90%, the “HepG2 3uM growth rep1” value was 88% and the “HepG2 3uM growth rep2” value is on record as 94%.

`Cc1ccc(C)c2sc(N3CCN(C(=O)c4ccc([N+](=O)[O-])o4)CC3)nc12` [MLS001234268-01]: the activity at 1 µM in assay [1] (setting [3]) came to 97%. Also, the activity at 1 µM in assay [1] (setting [4]) turned out to be 91%. The activity at 3 µM in assay [1] (setting [5]) stood at 57%. In assay [1] (setting [6]), the activity at 3 µM was 53%. The AC50 in assay [2] worked out at 4.73 µM. In the assay on HepG2-A16-CD81EGFP cells, the “HepG2 1uM growth rep1” value is 104%, the “HepG2 1uM growth rep2” value was determined as 96%, the “HepG2 3uM growth rep1” value amounted to 90% and the “HepG2 3uM growth rep2” value is listed as 99%.

Turning to `COc1ccc2[nH]c(C)c(CCN(Cc3cccs3)C(S)=Nc3ccccc3)c2c1` [MLS000529828-01], the activity at 1 µM in assay [1] (setting [3]) amounted to 145%. Further, the activity at 1 µM in assay [1] (setting [4]) came out at 108%. In assay [1] (setting [5]), the activity at 3 µM came to 101%. For the same compound, the activity at 3 µM in assay [1] (setting [6]) stood at 128%. In addition, in assay [2], the AC50 was determined as 2.66 µM. For the same compound, in the assay with HepG2-A16-CD81EGFP cells, the “HepG2 1uM growth rep1” value stood at 91%, the “HepG2 1uM growth rep2” value turned out to be 90%, the “HepG2 3uM growth rep1” value amounted to 85% and the “HepG2 3uM growth rep2” value is 88%.

As to `Oc1c(Cl)cc(Cl)cc1CN1CCN(Cc2ccccc2)CC1` [MLS000106505-01], the activity at 1 µM in assay [1] (setting [3]) came out at 108%. Further, the activity at 1 µM in assay [1] (setting [4]) worked out at 103%. Besides, the activity at 3 µM in assay [1] (setting [5]) was found to be 88%. The activity at 3 µM in assay [1] (setting [6]) was determined as 103%. For the same compound, the AC50 in assay [2] came to 0.668 µM. Moreover, in the assay on HepG2-A16-CD81EGFP cells, the “HepG2 1uM growth rep1” value amounted to 105%, the “HepG2 1uM growth rep2” value is 94%, the “HepG2 3uM growth rep1” value worked out at 90% and the “HepG2 3uM growth rep2” value is given as 94%.
